Reference: patent publication US12544370B2, “Methods for cancer therapy” (ASCENTAGE PHARMA (SUZHOU) CO., LTD., priority 2018, dated 2026)

Tested on: TKI-resistant patients with chronic phase (CP) or accelerated phase (AP) CML
Experiment: Phase I study, safety / treatment related adverse events (Example 1)
Excerpt: The eligible patients received treatments until disease progression or intolerable toxicities. The primary efficacy endpoint in the CML AP and CP patients, was complete hematological response (CHR) and major cytogenetic response (MCyR) respectively, MCyR includes partial cytogenetic response (PCyR) and complete cytogenetic response (CCyR). Blood samples were collected at various time points on Day 1-2 and Day 27-28 during cycle 1 for PK analyses.
• 3 to 6 subjects in each dose group (traditional 3+3 dose increasing method) • Up to 15 subjects in the MTD dose group (safety and PK characteristics) • Dose extension studies: • Up to 60 subjects (CP/CML-AP) • Extended dose selection is based on initial safety and efficacy Study Endpoints Primary Endpoint

[1] = Example 1, Table 1, 70 patients
[2] = Example 1, treatment related AE, all patients

## Cc1ccc(C(=O)Nc2ccc(CN3CCN(C)CC3)c(C(F)(F)F)c2)cc1C#Cc1cnc2[nH]ncc2c1 [compound of formula (I-A), 3-(2-(1H-pyrazolo[3,4-b]pyridin-5-yl)ethynyl)-4-methyl-N-(4-((4-methylpiperazin-1-yl)methyl)-3-(trifluoromethyl)phenyl)-benzamide]
[1]
  TRAE ALT increased, Any grade: 15 (21%) n (%)
  TRAE ALT increased, Grade 3-4: 0 n (%)
  TRAE AST increased, Any grade: 17 (24%) n (%)
  TRAE AST increased, Grade 3-4: 0 n (%)
  TRAE Anaemia, Any grade: 6 (8.6%) n (%)
  TRAE Anaemia, Grade 3-4: 5 (7.1%) n (%)
  TRAE CPK increased, Any grade: 18 (26%) n (%)
  TRAE CPK increased, Grade 3-4: 1 (1.4%) n (%)
  TRAE Creatinine increased, Any grade: 4 (5.7%) n (%)
  TRAE Creatinine increased, Grade 3-4: 0 n (%)
  TRAE GGT increased, Any grade: 10 (14%) n (%)
  TRAE GGT increased, Grade 3-4: 0 n (%)
  TRAE Hyperbilirubinemia, Any grade: 20 (29%) n (%)
  TRAE Hyperbilirubinemia, Grade 3-4: 0 n (%)
  TRAE Hyperglycaemia, Any grade: 5 (7.1%) n (%)
  TRAE Hyperglycaemia, Grade 3-4: 0 n (%)
  TRAE Hypertriglyceridaemia, Any grade: 36 (51%) n (%)
  TRAE Hypertriglyceridaemia, Grade 3-4: 2 (2.9%) n (%)
  TRAE Hypocalcaemia, Any grade: 25 (36%) n (%)
  TRAE Hypocalcaemia, Grade 3-4: 0 n (%)
  TRAE Hypokalaemia, Any grade: 12 (17%) n (%)
  TRAE Hypokalaemia, Grade 3-4: 0 n (%)
  TRAE Hyponatraemia, Any grade: 5 (7.1%) n (%)
  TRAE Hyponatraemia, Grade 3-4: 0 n (%)
  TRAE Leucocytopenia, Any grade: 12 (17%) n (%)
  TRAE Leucocytopenia, Grade 3-4: 12 (17%) n (%)
  TRAE Myalgia, Any grade: 11 (16%) n (%)
  TRAE Myalgia, Grade 3-4: 0 n (%)
  TRAE Pyrexia, Any grade: 13 (19%) n (%)
  TRAE Pyrexia, Grade 3-4: 4 (5.7%) n (%)
  TRAE Rash, Any grade: 9 (13%) n (%)
  TRAE Rash, Grade 3-4: 0 n (%)
  TRAE Skin hyperpigmentation, Any grade: 17 (24%) n (%)
  TRAE Skin hyperpigmentation, Grade 3-4: 0 n (%)
  TRAE Skin mass, Any grade: 6 (8.6%) n (%)
  TRAE Skin mass, Grade 3-4: 0 n (%)
  TRAE Thrombocytopenia, Any grade: 35 (50%) n (%)
  TRAE Thrombocytopenia, Grade 3-4: 35 (50%) n (%)
  TRAEs Hematological, Any grade: 36 (51%) n (%)
  TRAEs Hematological, Grade 3-4: 36 (51%) n (%)
  TRAEs Non-hematological, Any grade: 67 (96%) n (%)
  TRAEs Non-hematological, Grade 3-4: 11 (16%) n (%)
  TRAEs Overall, Any grade: 67 (96%) n (%)
  TRAEs Overall, Grade 3-4: 44 (63%) n (%)
Example 1, 20 mg (n = 4)
  ALT increased leading to dose interruption/reduction: 0 n (%)
  AST increased leading to dose interruption/reduction: 0 n (%)
  Amylase increased leading to dose interruption/reduction: 1(25%) n (%)
  Anemia leading to dose interruption/reduction: 0 n (%)
  Atrial fibrillation leading to dose interruption/reduction: 0 n (%)
  Cardiomyopathy leading to dose interruption/reduction: 0 n (%)
  GGT increased leading to dose interruption/reduction: 0 n (%)
  Hyperkalemia leading to dose interruption/reduction: 0 n (%)
  Hypertriglyceridemia leading to dose interruption/reduction: 0 n (%)
  Hypocalcemia leading to dose interruption/reduction: 0 n (%)
  Lacunar infarction leading to dose interruption/reduction: 0 n (%)
  Lipase increased leading to dose interruption/reduction: 0 n (%)
  Thrombocytopenia leading to dose interruption/reduction: 1(25%) n (%)
Example 1, 30 mg (n = 37)
  ALT increased leading to dose interruption/reduction: 0 n (%)
  AST increased leading to dose interruption/reduction: 0 n (%)
  Amylase increased leading to dose interruption/reduction: 0 n (%)
  Anemia leading to dose interruption/reduction: 1 n
  Anemia leading to dose interruption/reduction, percent of cohort: (2.7%)
  Atrial fibrillation leading to dose interruption/reduction: 1 n
  Atrial fibrillation leading to dose interruption/reduction, percent of cohort: (2.7%)
  Cardiomyopathy leading to dose interruption/reduction: 0 n (%)
  GGT increased leading to dose interruption/reduction: 0 n (%)
  Hyperkalemia leading to dose interruption/reduction: 1 n
  Hyperkalemia leading to dose interruption/reduction, percent of cohort: (2.7%)
  Hypertriglyceridemia leading to dose interruption/reduction: 1 n
  Hypertriglyceridemia leading to dose interruption/reduction, percent of cohort: (2.7%)
  Hypocalcemia leading to dose interruption/reduction: 2 n
  Hypocalcemia leading to dose interruption/reduction, percent of cohort: (5.4%)
  Lacunar infarction leading to dose interruption/reduction: 0 n (%)
  Lipase increased leading to dose interruption/reduction: 0 n (%)
  Thrombocytopenia leading to dose interruption/reduction: 12 n
  Thrombocytopenia leading to dose interruption/reduction, percent of cohort: (32%)
Example 1, 40 mg (n = 37)
  ALT increased leading to dose interruption/reduction: 1 n
  ALT increased leading to dose interruption/reduction, percent of cohort: (2.7%)
  AST increased leading to dose interruption/reduction: 1 n
  AST increased leading to dose interruption/reduction, percent of cohort: (2.7%)
  Amylase increased leading to dose interruption/reduction: 0 n (%)
  Anemia leading to dose interruption/reduction: 0 n (%)
  Atrial fibrillation leading to dose interruption/reduction: 0 n (%)
  Cardiomyopathy leading to dose interruption/reduction: 0 n (%)
  GGT increased leading to dose interruption/reduction: 1 n
  GGT increased leading to dose interruption/reduction, percent of cohort: (2.7%)
  Hyperkalemia leading to dose interruption/reduction: 0 n (%)
  Hypertriglyceridemia leading to dose interruption/reduction: 0 n (%)
  Hypocalcemia leading to dose interruption/reduction: 0 n (%)
  Lacunar infarction leading to dose interruption/reduction: 0 n (%)
  Lipase increased leading to dose interruption/reduction: 1 n
  Lipase increased leading to dose interruption/reduction, percent of cohort: (2.7%)
  Thrombocytopenia leading to dose interruption/reduction: 11 n
  Thrombocytopenia leading to dose interruption/reduction, percent of cohort: (30%)
Example 1, 45 mg (n = 3)
  ALT increased leading to dose interruption/reduction: 0 n (%)
  AST increased leading to dose interruption/reduction: 0 n (%)
  Amylase increased leading to dose interruption/reduction: 0 n (%)
  Anemia leading to dose interruption/reduction: 0 n (%)
  Atrial fibrillation leading to dose interruption/reduction: 0 n (%)
  Cardiomyopathy leading to dose interruption/reduction: 0 n (%)
  GGT increased leading to dose interruption/reduction: 0 n (%)
  Hyperkalemia leading to dose interruption/reduction: 0 n (%)
  Hypertriglyceridemia leading to dose interruption/reduction: 0 n (%)
  Hypocalcemia leading to dose interruption/reduction: 0 n (%)
  Lacunar infarction leading to dose interruption/reduction: 0 n (%)
  Lipase increased leading to dose interruption/reduction: 0 n (%)
  Thrombocytopenia leading to dose interruption/reduction: 2(67%) n (%)
Example 1, 50 mg (n = 24)
  ALT increased leading to dose interruption/reduction: 1 n
  ALT increased leading to dose interruption/reduction, percent of cohort: (4.2%)
  AST increased leading to dose interruption/reduction: 1 n
  AST increased leading to dose interruption/reduction, percent of cohort: (4.2%)
  Amylase increased leading to dose interruption/reduction: 0 n (%)
  Anemia leading to dose interruption/reduction: 0 n (%)
  Atrial fibrillation leading to dose interruption/reduction: 0 n (%)
  Cardiomyopathy leading to dose interruption/reduction: 0 n (%)
  GGT increased leading to dose interruption/reduction: 0 n (%)
  Hyperkalemia leading to dose interruption/reduction: 0 n (%)
  Hypertriglyceridemia leading to dose interruption/reduction: 0 n (%)
  Hypocalcemia leading to dose interruption/reduction: 1 n
  Hypocalcemia leading to dose interruption/reduction, percent of cohort: (4.2%)
  Lacunar infarction leading to dose interruption/reduction: 1 n
  Lacunar infarction leading to dose interruption/reduction, percent of cohort: (4.2%)
  Lipase increased leading to dose interruption/reduction: 1 n
  Lipase increased leading to dose interruption/reduction, percent of cohort: (4.2%)
  Thrombocytopenia leading to dose interruption/reduction: 8 n
  Thrombocytopenia leading to dose interruption/reduction, percent of cohort: (33%)
Example 1, 60 mg (n = 3)
  ALT increased leading to dose interruption/reduction: 0 n (%)
  AST increased leading to dose interruption/reduction: 0 n (%)
  Amylase increased leading to dose interruption/reduction: 0 n (%)
  Anemia leading to dose interruption/reduction: 0 n (%)
  Atrial fibrillation leading to dose interruption/reduction: 0 n (%)
  Cardiomyopathy leading to dose interruption/reduction: 1(33%) n (%)
  GGT increased leading to dose interruption/reduction: 0 n (%)
  Hyperkalemia leading to dose interruption/reduction: 0 n (%)
  Hypertriglyceridemia leading to dose interruption/reduction: 0 n (%)
  Hypocalcemia leading to dose interruption/reduction: 0 n (%)
  Lacunar infarction leading to dose interruption/reduction: 0 n (%)
  Lipase increased leading to dose interruption/reduction: 0 n (%)
  Thrombocytopenia leading to dose interruption/reduction: 2(67%) n (%)
Example 1, 60 mg cohort
  patients with dose-limiting toxicity (DLT): Two out of 3
Example 1, 70 patients
  patient withdrawal from the study because of TRAEs: no patient withdrawal
Example 1, QOD
  maximum toxic dosage (MTD): 50 mg
Example 1, median follow-up of 4.1 (1.0-21.2) cycles
  tolerability: well-tolerated in all dose cohorts other than the 60 mg cohort
[2]
  Alanine aminotransferase increased, Any grade: 29 (29%) n (%)
  Alanine aminotransferase increased, Grade 3-4: 2 (2.0%) n (%)
  Alanine aminotransferase increased, SAE: 0 n (%)
  Anaemia, Any grade: 10 (10%) n (%)
  Anaemia, Grade 3-4: 9 (9.0%) n (%)
  Anaemia, SAE: 2 (2.0%) n (%)
  Aspartate aminotransferase inceased, Any grade: 31 (31%) n (%)
  Aspartate aminotransferase inceased, Grade 3-4: 2 (2.0%) n (%)
  Aspartate aminotransferase inceased, SAE: 0 n (%)
  Blood bilirubin increased, Any grade: 28 (28%) n (%)
  Blood bilirubin increased, Grade 3-4: 1 (1.0%) n (%)
  Blood bilirubin increased, SAE: 0 n (%)
  Blood creatine phosphokinase increased, Any grade: 19 (19%) n (%)
  Blood creatine phosphokinase increased, Grade 3-4: 1 (1.0%) n (%)
  Blood creatine phosphokinase increased, SAE: 0 n (%)
  Hypertriglyceridaemia, Any grade: 51 (51%) n (%)
  Hypertriglyceridaemia, Grade 3-4: 4 (4.0%) n (%)
  Hypertriglyceridaemia, SAE: 0 n (%)
  Hypocalcaemia, Any grade: 31 (31%) n (%)
  Hypocalcaemia, Grade 3-4: 0 n (%)
  Hypocalcaemia, SAE: 0 n (%)
  Leukopenia, Any grade: 17 (17%) n (%)
  Leukopenia, Grade 3-4: 15 (15%) n (%)
  Neutropenia, Any grade: 2 (2.0%) n (%)
  Neutropenia, Grade 3-4: 0 n (%)
  Neutropenia, SAE: 0 n (%)
  Proteinuria, Any grade: 11 (11%) n (%)
  Proteinuria, Grade 3-4: 1 (1.0%) n (%)
  Proteinuria, SAE: 0 n (%)
  Skin hyperpigmentation, Any grade: 35 (35%) n (%)
  Skin hyperpigmentation, Grade 3-4: 0 n (%)
  Skin hyperpigmentation, SAE: 0 n (%)
  Thrombocytopenia, Any grade: 46 (46%) n (%)
  Thrombocytopenia, Grade 3-4: 45 (45%) n (%)
  Thrombocytopenia, SAE: 5 (5.0%) n (%)
  leukocytosis, Any grade: 9 (9.0%) n (%)
  leukocytosis, Grade 3-4: 8 (8.0%) n (%)
  leukocytosis, SAE: 0 n (%)
  leukopenia, SAE: 0 n (%)
